These results are taken from patent US20240376097A1, “BCL-2 Inhibitor” (BeiGene Ltd., priority 2020, published 2024).

Assay [1] deals with recombinant human Bcl-2-G101V protein (Homo sapiens (Human), UniProt P10415, G101V). Kind of assay: Bcl-2-G101V TR-FRET Assay. The note with it: Bcl-2 G101V mutant, TR-FRET; read-out: Biochemical assay (IC50, nM) Bcl-2 G101V. Format: binding. The method in brief: (§1)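 IC50 values derive from four-parameter logistic fitting of percent inhibition data. That inhibition of ligand binding to Bcl-2-G101V is computed from the 490 nm/520 nm TR-FRET ratio under 337 nm excitation, over a rising compound concentration series.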
Background: TR-FRET usually uses a lanthanide donor and a delayed reading to cut background.

Assay [2] concerns recombinant human Bcl-2-G101V protein. In words: Bcl-2-G101V TR-FRET Assay. Format: binding. To be noted: ratio of biochemical IC50 Bcl-2 G101V / Bcl-2 WT. The essentials:
as §1

Assay [3] has as its system BCL-2 G101V knock-in cell line H96 (derive from RS4;11). In words: Bcl 2-G101V Knock-In RS4;11 Cell Proliferation Assay. Format: cell-based. To be noted: Homo sapiens, RS4;11 Bcl-2 G101V knock-in clone H96, 48 hrs, CellTiter-GLO, read-out: Cellular proliferation assay (IC50, nM) RS4. The essentials: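 CellTiter-Glo luminescence after 48 h, 37 °C compound treatment (10 concentrations, maximum 1 μM or 10 μM) gave mean IC50 values. Cells were 50,000 per well of H96, a BCL2-G101V knock-in single clone derived from RS4;11 by Cas9 editing.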
In general terms: In ATP-based viability assays light output follows the ATP content of the culture.

For assay [4], the system named is RS4;11 (BCL-2 dependent acute lymphoblastic leukemia cell line). Kind of assay: RS4;11 Cell Proliferation Assay. The note with it: Homo sapiens, RS4-11, RS4;11 cells, read-out: Cellular proliferation assay (IC50, nM) RS4. The class given is cell-based. The method in brief:
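Viability measured via CellTiter-Glo luminescence after a 48 h, 37 °C exposure to compounds (10 points, highest 1 μM). Seeding was 50,000 RS4;11 cells per well in 10% FBS RPMI-1640; IC50 given as mean.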

For assay [5], the target named is Recombinant human Bcl-2 protein (Homo sapiens (Human), UniProt P10415). Kind of assay: Bcl-2 TR-FRET Assay. The class given is binding. The note with it: Bcl-2 wild type, TR-FRET; read-out: Biochemical assay (IC50, nM) Bcl-2 WT. The method in brief:
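In pH 7.5 phosphate buffer containing NaCl, EDTA, Tween-20 and BSA, 0.05 nM Bcl-2 saw serially diluted compound for 0.5 h before 0.5 nM FITC-Bak peptide was added. Signal ratio at 520/490 nm after 1 h yielded IC50.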

On to `[2H]C([2H])([2H])Oc1ccc(CN2CCN(C3CC4(CCN(c5ccc(C(=O)NS(=O)(=O)c6ccc(NC[C@H]7CC[C@](C)(O)CC7)c([N+](=O)[O-])c6)c(Oc6cnc7[nH]cc(Cl)c7c6)c5)CC4)C3)[C@H](c3ccccc3C(C)C)C2)cc1OC([2H])([2H])[2H]` [Example 250, 4-(2-((R)-4-(3,4-bis(methoxy-d3)benzyl)-2-(2-isopropylphenyl)piperazin-1-yl)-7-azaspiro[3.5]nonan-7-yl)-2-((3-chloro-1H-pyrrolo[2,3-b]pyridin-5-yl)oxy)-N-((4-((((1r,4r)-4-hydroxy-4-methylcyclohexyl)methyl)amino)-3-nitrophenyl)sulfonyl)benzamide], for which the IC50 in assay [1] was determined as 0.52 nM; in assay [3], 1.06 nM; in assay [4] it was 0.16 nM; in assay [5], 0.09 nM. In assay [2], the “Ratio of Bcl-2 G101V/WT” value was 5.7.
On the same counts, the results for `COc1cc(CN2CCN(C3CC4(CCN(c5ccc(C(=O)NS(=O)(=O)c6ccc(NC[C@H]7CC[C@](C)(O)CC7)c([N+](=O)[O-])c6)c(Oc6cnc7[nH]cc(Cl)c7c6)c5)CC4)C3)[C@H](c3ccccc3C(C)C)C2)ccc1C1CC1` [Example 252, 2-((3-chloro-1H-pyrrolo[2,3-b]pyridin-5-yl)oxy)-4-(2-((R)-4-(4-cyclopropyl-3-methoxybenzyl)-2-(2-isopropylphenyl)piperazin-1-yl)-7-azaspiro[3.5]nonan-7-yl)-N-((4-((((1r,4r)-4-hydroxy-4-methylcyclohexyl)methyl)amino)-3-nitrophenyl)sulfonyl)benzamide] are 3.5 nM, 2.6 nM, 0.26 nM, 1.2 nM and 2.8.
`[2H]C([2H])([2H])Oc1ccc(CN2CCN(C3CC4(CCN(c5ccc(C(=O)NS(=O)(=O)c6ccc(NC[C@H]7CC[C@](C)(O)CC7)c([N+](=O)[O-])c6)c(Oc6cnc7[nH]ccc7c6)c5)CC4)C3)[C@H](c3ccccc3C(C)C)C2)cc1OC([2H])([2H])[2H]` [Example 253, 2-((1H-pyrrolo[2,3-b]pyridin-5-yl)oxy)-4-(2-((R)-4-(3,4-bis(methoxy-d3)benzyl)-2-(2-isopropylphenyl)piperazin-1-yl)-7-azaspiro[3.5]nonan-7-yl)-N-((4-((((1r,4r)-4-hydroxy-4-methylcyclohexyl)methyl)amino)-3-nitrophenyl)sulfonyl)benzamide]: the IC50 in assay [1] was found to be 0.089 nM; in assay [3], 0.29 nM; in assay [4], 0.11 nM; in assay [5], 0.027 nM. Also, the “Ratio of Bcl-2 G101V/WT” value in assay [2] is 3.3.
In the same order, the values of `COc1ccc(CN2CCN(C3CC4(C3)CN(c3ccc(C(=O)NS(=O)(=O)c5ccc(NC[C@H]6CC[C@](C)(O)CC6)c([N+](=O)[O-])c5)c(Oc5cnc6[nH]ccc6c5)c3)C4)[C@H](c3ccccc3C(C)C)C2)cn1` [Example 254, 2-((1H-pyrrolo[2,3-b]pyridin-5-yl)oxy)-N-((4-((((1r,4r)-4-hydroxy-4-methylcyclohexyl)methyl)amino)-3-nitrophenyl)sulfonyl)-4-(6-((R)-2-(2-isopropylphenyl)-4-((6-methoxypyridin-3-yl)methyl)piperazin-1-yl)-2-azaspiro[3.3]heptan-2-yl)benzamide] are 0.067 nM, 0.25 nM, 0.09 nM, 0.017 nM and 3.9.
In the same order, the values of `CC(C)c1ccccc1[C@@H]1CN(CC2C3CC4CC(C3)CC2C4)CCN1C1CC2(CCN(c3ccc(C(=O)NS(=O)(=O)c4ccc(NC[C@H]5CC[C@](C)(O)CC5)c([N+](=O)[O-])c4)c(Oc4cnc5[nH]ccc5c4)c3)CC2)C1` (stereo partly drawn) [Example 259, 2-((1H-pyrrolo[2,3-b]pyridin-5-yl)oxy)-4-(2-((2R)-4-(((1R,3S,5R)-adamantan-2-yl)methyl)-2-(2-isopropylphenyl)piperazin-1-yl)-7-azaspiro[3.5]nonan-7-yl)-N-((4-((((1r,4r)-4-hydroxy-4-methylcyclohexyl)methyl)amino)-3-nitrophenyl)sulfonyl)benzamide] are 3.4 nM, 4.2 nM, 0.55 nM, 0.91 nM and 3.8.
`COc1cc(CN2CCN(C3CC4(CCN(c5ccc(C(=O)NS(=O)(=O)c6ccc(NC[C@H]7CC[C@](C)(O)CC7)c([N+](=O)[O-])c6)c(Oc6cnc7[nH]ccc7c6)c5)CC4)C3)[C@H](c3ccccc3C(C)C)C2)ccc1C(C)C` [Example 263, 2-((1H-pyrrolo[2,3-b]pyridin-5-yl)oxy)-N-((4-((((1r,4r)-4-hydroxy-4-methylcyclohexyl)methyl)amino)-3-nitrophenyl)sulfonyl)-4-(2-((R)-4-(4-isopropyl-3-methoxybenzyl)-2-(2-isopropylphenyl)piperazin-1-yl)-7-azaspiro[3.5]nonan-7-yl) benzamide]: the IC50 in assay [1] is 4.9 nM; in assay [3], 1.01 nM; in assay [4] it was 0.18 nM; in assay [5] it was 1.3 nM. Besides, the “Ratio of Bcl-2 G101V/WT” value in assay [2] worked out at 3.9.
`COc1cc(CN2CCN(C3CC4(CCN(c5ccc(C(=O)NS(=O)(=O)c6ccc(NC[C@H]7CC[C@](C)(O)CC7)c([N+](=O)[O-])c6)c(Oc6cnc7[nH]cc(F)c7c6)c5)CC4)C3)[C@H](c3ccccc3C(C)C)C2)ccc1C(C)C` [Example 264, 2-((3-fluoro-1H-pyrrolo[2,3-b]pyridin-5-yl)oxy)-N-((4-((((1r,4r)-4-hydroxy-4-methylcyclohexyl)methyl)amino)-3-nitrophenyl)sulfonyl)-4-(2-((R)-4-(4-isopropyl-3-methoxybenzyl)-2-(2-isopropylphenyl)piperazin-1-yl)-7-azaspiro[3.5]nonan-7-yl)benzamide]: the IC50 in assay [1] stood at 7.3 nM; in assay [3], 0.78 nM; in assay [4], 0.26 nM; in assay [5], 1.9 nM. Besides, the “Ratio of Bcl-2 G101V/WT” value in assay [2] is on record as 3.8.
As to `CCc1ccc(CN2CCN(C3CC4(CCN(c5ccc(C(=O)NS(=O)(=O)c6ccc(NC[C@H]7CC[C@](C)(O)CC7)c([N+](=O)[O-])c6)c(Oc6cnc7[nH]ccc7c6)c5)CC4)C3)[C@H](c3ccccc3C(C)C)C2)cc1OC` [Example 265, 2-((1H-pyrrolo[2,5-b]pyridin-5-yl)oxy)-4-(2-((R)-4-(4-ethyl-3-methoxybenzyl)-2-(2-isopropylphenyl)piperazin-1-yl)-7-azaspiro[3.5]nonan-7-yl)-N-((4-((((1r,4r)-4-hydroxy-4-methylcyclohexyl)methyl)amino)-3-nitrophenyl)sulfonyl)benzamide], the IC50 in assay [1] is 1.9 nM; in assay [3], 0.65 nM; in assay [4], 0.15 nM; in assay [5] it was 0.66 nM. Besides, in assay [2], the “Ratio of Bcl-2 G101V/WT” value is listed as 3.
In the same order, the values of `CCc1ccc(CN2CCN(C3CC4(CCN(c5ccc(C(=O)NS(=O)(=O)c6ccc(NC[C@H]7CC[C@](C)(O)CC7)c([N+](=O)[O-])c6)c(Oc6cnc7[nH]cc(F)c7c6)c5)CC4)C3)[C@H](c3ccccc3C(C)C)C2)cc1OC` [Example 266, 4-(2-((R)-4-(4-ethyl-3-methoxybenzyl)-2-(2-isopropylphenyl)piperazin-1-yl)-7-azaspiro[3.5]nonan-7-yl)-2-((3-fluoro-1H-pyrrolo[2,3-b]pyridin-5-yl)oxy)-N-((4-((((1r,4r)-4-hydroxy-4-methylcyclohexyl)methyl)amino)-3-nitrophenyl)sulfonyl) benzamide] are 4.1 nM, 0.66 nM, 0.22 nM, 1.4 nM and 3.
On the same counts, the results for `COc1cc(CN2CCN(C3CC4(C3)CN(c3ccc(C(=O)NS(=O)(=O)c5ccc(NC[C@H]6CC[C@](C)(O)CC6)c([N+](=O)[O-])c5)c(Oc5cnc6[nH]cc(F)c6c5)c3)C4)[C@H](c3ccccc3C(C)C)C2)ccc1C(C)C` [Example 269, 2-((3-fluoro-1H-pyrrolo[2,3-b]pyridin-5-yl)oxy)-N-((4-((((1r,4r)-4-hydroxy-4-methylcyclohexyl)methyl)amino)-3-nitrophenyl)sulfonyl)-4-(6-((R)-4-(4-isopropyl-3-methoxybenzyl)-2-(2-isopropylphenyl)piperazin-1-yl)-2-azaspiro[3.3]heptan-2-yl) benzamide] are 4.9 nM, 0.41 nM, 0.17 nM, 2.1 nM and 2.4.
